In patent publication US8895069B2, “Drug delivery system using hyaluronic acid-peptide conjugate micelle” (Postech Academy-Industry Foundation, priority 2011, dated 2014):

Columns and labels:
[1] = test system: HUVEC (Human Umbilical Vein Endothelial Cell); assay: HUVEC proliferation (MTT); type: cell-based
Procedure: An endothelial cell, HUVEC (Human Umbilical Vein Endothelial Cell) (innopharmascreen co. ltd., Korea) was incubated in a EGM®^2 culture medium (Lonza) and then 100 μL of the cell solution with a concentration of 2×10^4/ml was distributed per each well and incubated in a 5% CO2 cultivator at 37° C. for 16 hours. After 16 hours, the culture medium was replaced and seven types of samples were treated. Among the seven types of samples were the control group as treated only with a culture medium, and the groups treated with 50 μM, 100 μM, and 200 μM of genistein solutions and the solutions of the genistein-loaded hyaluronic acid-peptide conjugate of Example 1 comprising 50 μM, 100 μM, and 200 μM of genistein, respectively. 10 μL of each sample and 100 μL of the culture medium were mixed and treated. After the samples were treated, they were incubated in 5% CO2 incubator at 37° C. and the culture media with the samples being mixed therein […] once a day. After three days, the culture media were removed and the samples were treated with 110 μL of an MTT solution (Amresco Co. (Solon, Ohio)), and incubated in a cultivator at 37° C. for two hours and then 50 μL of DMSO was added thereto to measure a light absorbency at 540 nm. The light absorbance as measured was compared with the light absorbance of the control group and the degree of the cell growth was calculated.

[2] = test system: corneal neovascularization; assay: Corneal neovascularization, genistein-loaded micelle (Experimental Example 13); type: in vivo, Albino Sprague Dawley male rats
[3] = test system: vascular hyperpermeability due to diabetic retinopathy; assay: Vascular hyperpermeability due to diabetic retinopathy, genistein-loaded micelle (Experimental Example 14); type: in vivo, Sprague Dawley (SD) male rats
Procedure: First, each rat was injected intraperitonially with 60 mg/kg of streptozotocin dissolved in 10 mM citrate buffer at pH 4.5 in order for diabetes to be induced. In three days after the injection of streptozotocin, the rat was determined to develop diabetes when its serum concentration of glucose was at least 300 mg/dL. In a week after the injection of streptozotocin, 10 μL of each sample solution was injected into the vitroeus body.

[4] = test system: corneal neovascularization; assay: Corneal neovascularization after silver nitrate cauterization (Experimental Example 8); type: in vivo, Albino Sprague Dawley male rats; conditions: rat cornea, subconjunctival 20 μL; Avastin 10 mg/ml, peptide and conjugate […] peptide; NV control 90.8±5%
Procedure: All animal tests including this experiment were conducted in compliance with the guidelines of the Catholic University of Korea and the principles of laboratory animal care; NIH publication No. 85-23 revised in 1985.
The rat was put under anesthesia by an intra-peritoneal injection of a mixed solution of 20 mg/kg of ketamine hydrochloride and 2.5 mg/kg of xylazine hydrochloride. […] In 3 days after the cauterization, subconjunctival administration was conducted with 20 μL of each of 4 sample solutions (a normal control group, NV control (neovascularization control: a control group wherein angiogenesis was made to occur and no drug was treated thereon), a solution comprising Avastin (Roche) dissolved in PBS at a concentration of 10 mg/ml, a solution comprising anti-Flt1 peptide (GGNQWFI) (SEQ ID NO: 3) dissolved in PBS at a concentration of 2.5 mg/ml, and a solution comprising the hyaluronic acid-peptide conjugate with a lower peptide concentration obtained from Preparation Example 3 as dissolved in PBS at a concentration of 2.5 mg/ml based on the content of anti-Flt1 peptide). […] The obtained images were subjected to quantitative analysis with Image J program (Ver. 1.38, National Institute of Health, MD).

[5] = genistein as dispersed in water, 6.2 mg/ml
[6] = genistein as dissolved in DMSO, 6.2 mg/ml

| Compound | HUVEC growth inhibition, comparison of genistein alone with micelle ([1]; genistein alone at 200 uM versus genistein-loaded micelle at 50 uM) | HUVEC cell number relative to control group (100%) ([1]; genistein concentration 100 μm (so in the source), 3 days, MTT) | average ratio of the neovascular area [2, 5] | average ratio of the neovascular area [2, 6] | average intensity of the fluorescence of retina relative to normal group (1) [3, 5] | average intensity of the fluorescence of retina relative to normal group (1) [3, 6] | average ratio of the neovascular area [4] | average ratio of the neovascular area ([2]; rat cornea, samples in PBS: Avastin 10 mg/ml, conjugate and micelle 3.2 mg/ml peptide, control group 86%) | average intensity of the fluorescence of retina relative to normal group (1) ([3]; normal = 1, negative control 2.54±0.20, Avastin 10 mg/ml, micelle 3.2 mg/ml peptide, four weeks after streptozotocin) |
| --- | --- | --- | --- | --- | --- | --- | --- | --- | --- |
| O=c1c(-c2ccc(O)cc2)coc2cc(O)cc(O)c12 [genistein] | inferior to the results obtained from the group treated with the genistein-loaded micelle at its lowest concentration (50 uM) | 70.5±3.5% | 68% | 38% | 2.38±0.20 | 2.00±0.16 | – | – | – |
| Avastin: Avastin (Roche), positive control | – | – | – | – | – | – | 35.4±6.6% | 23% | 1.49±0.17 |
